Laboratory results published in paper PMC3068151 (PLoS ONE, 2011).

How the values were obtained:
EphB kinases = experiment: ELISA displacement of biotinylated ephrinB1-Fc from immobilized EphB-Fc ectodomains; type: binding; details: biotinylated ephrinB1-Fc at KD concentration
PC3, HT29 and T47D cells = experiment: MTT cell viability assay; type: cell-based, human; details: concentrations studied in phosphorylation studies; 2 hours incubation
Experimental: Cell viability was evaluated using the MTT colorimetric assay. Cells were plated in 96-well plates at a density of 10^5cells/ml and the day after treated with compounds or 0.5% DMSO for 2, 24, 48, or 72 hours. MTT was added at the final concentration of 1 mg/ml and incubated for 2 hours. The resulting formazan crystals were washed with PBS 100 µl/well and then solubilized with DMSO 200 µl/well. The absorbance was measured at 550 nm using an ELISA plate reader and the results were expressed as the ratio between absorbance of the cell treated with the compounds and untreated cells.
Supplementary file pone.0018128.s003.pdf: Figure S2 Cytotoxicity of bile acids on PC3, HT29 and T47D cells after 2 hours of incubation with the indicated compounds. Data are means±SEM. (PDF) Click here for additional data file.

Structure (SMILES): C[C@H](CCC(=O)O)[C@H]1CC[C@H]2[C@@H]3CC[C@@H]4C[C@H](O)CC[C@]4(C)[C@H]3CC[C@]12C [LCA, lithocholic acid]
- displacement of ephrin-B1-Fc ectodomain from immobilized EphB-Fc ectodomains (EphB kinases): dose-dependently displaced
- toxicity (MTT) (PC3, HT29 and T47D cells): devoid of any toxicity
